From US20160175292A1, “Antioxidants Having Aromatic Structures Reacting with Superoxide” (priority 2014, published 2016) come the findings set out here.

Entries after “also recorded” stand apart in the source; their conditions may differ.

One data set concerns T cell proliferation. Put plainly: In vitro T cell proliferation (FIG. 9). The format is cell-based. An excerpt: This is similar to the activity observed with PEG-HCCs.
For another data set, the system named is rat T cells. As to the kind of experiment: In vitro proliferation of ConA-stimulated rat T cells, micromolar concentration (FIG. 10). The format is cell-based. The settings on record: rat T cells stimulated with 1 μg/mL ConA. The method, then: In vitro analysis of EG3-NDI LNA20, EG8-PDI LNA30, and EG8-NDI, labeled LNA38 (which is Compound A in FIG. 4 where n=8) on T cell proliferation based on micromolar concentration was performed. 1 μg/mL ConA (mitogen) was used to stimulate rat T cells. […] Error bars represent variability between replicate wells. Unstimulated cells (left-hand bar) are shown as a negative control. Statistical analysis was performed between stimulated control cells without treatment (“Stimulated” bar) vs. various doses of the different compounds using a one-way ANOVA and Bonferonni post-hoc tests. *P<0.05, ***P<0.001, ****P<0.0001.

The nature of data set [1]: Superoxide scavenging assay using nitroblue tetrazolium (NBT) and KO2 (FIG. 11). The format is biochemical. The note with it: NBT added 30 s, 60 s, 120 s, 300 s after KO2; diformazan at 560 nm. The method, then: The antioxidant and buffer/solvent was added to a cuvette, followed by the KO2 solution. After a set time (30 s, 60 s, 120 s, 300 s), NBT was added and the resulting mixture analyzed for the NBT diformazan (λmax=560 nm) by UV-Vis spectroscopy (FIG. 11).
In FIG. 11, PEG-HCCs and p-benzoquinone (pBQ) were also run for comparison.

The nature of data set [2]: Cyclic voltammetry, reduction potential (FIG. 12). The format is physicochemical. The settings on record: 50 mM PBS pH 7.4, modified glassy carbon electrode, scan rate 100 mV/s. The method, then: FIG. 12 is a cyclic voltometry (“CV”) plot of 50 mM PBS (pH=7.4) bare glassy carbon (GC) working electrode and with modified perylene tetracarboxylic anhydride (PTCA) and HCC. (Scan rate: 100 mV/s).
The triethyleneglycol-PDIs (TEG-PDIs) and TEG-NDIs have been analyzed electrochemically and show similar reduction potentials to the HCCs and PEG-HCCs. Electrochemical investigations of HCCs have placed its reduction at −0.7 V vs. Ag/AgCl, as shown by its broad peak in Plot A below.
Accordingly, the triethyleneglycol-PDIs (TEG-PDIs) and TEG-NDIs have been analyzed electrochemically and shown to have similar reduction potentials to the HCCs and PEG-HCCs. Electrochemical investigations of HCCs have placed its reduction at —0.7 V vs. Ag/AgCl (Plot A). 3,4,9,10-Perylenediimide (PDI) derivatives also have redox potentials˜−0.6 V. 1,4,5,8-Naphthalenediimide (NDI) derivatives show discrete reduction steps in the same region (Plot B).

`COCCOCCOCCN1C(=O)c2ccc3c4c(ccc(c24)C1=O)C(=O)N(CCOCCOCCOC)C3=O` [LNA20, bis-methoxytriethylene glycol naphthalene diimide]: in the data set with T cell proliferation, the “concentrations showing inhibitory effects on T cell proliferation” value was “above 10 μg/mL” and the “effect on T cell proliferation” value is “exhibit an inhibitory effect”. Also, in the data set on rat T cells, the “effect on T cell proliferation” value is “exhibit an inhibitory effect” and the “relative potency in inhibiting T cell proliferation” value is “most potent”. For the same compound, in data set [1], the “superoxide consumption / reaction with superoxide (reduction of NBT)” value is on record as “reacts with superoxide; also recorded: showed activity”.

For `O=C1C=CC(=O)C=C1` [pBQ, p-benzoquinone, reference compound], the “superoxide consumption / reaction with superoxide (reduction of NBT)” value in data set [1] was “near complete consumption of superoxide; also recorded: nearly completely consumed”.

Compound `O=C1OC(=O)c2ccc3c4ccc5c6c(ccc(c7ccc1c2c73)c64)C(=O)OC5=O` [perylene tetracarboxylic anhydride] came in with a reduction potential in data set [2] of −0.7 V vs. Ag/AgCl.
